In patent EP0087397A2, “Propionylglycine derivative, process for its preparation and therapeutic compositions which contain it as the active principle” (Farmatis S.r.l., priority 1982, dated 1983):
Structures can show the parent of a compound that is named as a salt. Where two headings read alike, the source gives them in different places.

How the values were obtained:
[1] = Mucolytic activity on nonpurulent excreta (in vitro, viscosity); parameters: species or system chronic bronchitis patients; conditions: AC and MP in tamponed solution
Procedure: (§1) The mucolytic compounds under test were incubated for 5 minutes at 25°C under constant agitation, mixing 1 ml of aqueous solution of product, having increasing molar quantities of the product being considered, with 10 ml of mucin. The viscosity was measured both before and after incubation, using an Ostwald viscosimeter with 1.5 mm capillaries. […] Each value represents the average of six readings.
Mucolytic activity on nonpurulent excreta The mucolytic activity was measured using a pool of nonpurulent excreta obtained from chronic bronchitis patients. The excreta was diluted 1:1 with a physiological solution and homogenized for three minutes - using a glass homogenizer - and then filtered through gauze and used immediately. The method used here is the same as described in the previous paragraph. In this case, however, the residual viscosity was determined after 5 minutes at 25°C (a) and after 40 minutes at 37°C (b).

[2] = tested on: intrabronchial desquamation and reactive hyperplasia of the mucosa; experiment: Trophic-protective activity, nebulized CCl4; assay type: in vivo, rats; conditions: 0.25 g/kg/die orally for ten days, nebulized CCl4, 5 applications of 2 minutes/die
Procedure: This was determined in rats by the administration of 0.25 g/kg/die, orally, of the product for a period of ten days while, contemporaneously, treating with nebulized CCl4 (5 applications of 2 minutes/die).

carragenin = experiment: Antiphlogistic activity, carragenin paw test; assay type: in vivo, rats; conditions: for ED50: Rattus norvegicus, sc, 3 h
Procedure: This was determined on rats by means of the administration of the product,using an esophagus probe, one hour before making a subcutaneous injection of 0.05 ml of 1% carragenin solution in the right hind paw. After three hours, the volume of the treated paw was compared to the left hind paw, using a plethysmograph.

DIFCO gastric mucin = experiment: Mucolytic activity on gastric mucin (in vitro, Ostwald viscosimeter); assay type: biochemical; conditions: for Residual Viscosity in %: 5 minutes at 25°C, average of six readings, % of initial viscosity
Procedure: The mucolytic activity was measured using DIFCO gastric mucin (10 g dissolved in 100 ml of phyaiological solution).
as §1

[3] = tested on: bronchial hypersecretion induced in rats using S02; experiment: In vivo mucolytic activity: bronchial hypersecretion induced by SO2; conditions: for number of rats which developed bronchial obstruction, expressed as a percentage of the animals not protected: oral 0.25 g/kg/die for two weeks, 300 ppm SO2 two hours per day, total 90 hours
Procedure: This was determined by means of bronchial hypersecretion induced in rats using […]. The rats were treated by oral administration of 0.25 g/kg/die of mucolytic product for a period of two weeks, followed by inhalation of 300 ppm of SO2 for two hours per day for a total of 90 hours.

aerosol histaminic shock = experiment: Antibronchospasmic activity, aerosol histaminic shock; assay type: in vivo; conditions: for time for the onset of the convulsions: 0.1 g/kg i.p., histamine aerosol two hours after pretreatment
Excerpt: […] The time was taken for the onset of the convulsions after having started administering the aerosol.

Acute toxicity = assay type: in vivo; conditions: mouse, in vivo, mice, read-out: DL50 (the source's name)
Excerpt: (§2) The acute toxicity determined in mice is shown by the values in Table 5 below: […]

mice = experiment: Acute toxicity; assay type: in vivo
Excerpt: as §2

chronic bronchitis cases = experiment: Preliminary clinical tests in chronic bronchitis cases; assay type: in vivo; conditions: for diminuition of excreta viscosity: 4th-5th day of treatment, cone and plate rotary viscosimeter
Procedure: In the clinical field, preliminary tests were performed with the new compound by giving daily doses of 0.5 g,parenterally, 0.8 g, by aerosol, and 1 g,either orally or rectally, to chronic bronchitis cases. There was a progressive diminuition of excreta viscosity at the 4th-5th day of treatment, 70% in the case of purulent expectoration and 50% in the case of muco- purulent expectoration. The values were measured by means of a cone and plate, rotary viscosimeter. There was an average increase of 20% in vital capacity, 15% in VEMS and a reduction of residual volume of about 20%.
This test proves once more that the new product is well tolerated in comparison with the other compounds having free thiolic action.

rats and dogs = experiment: Subacute and chronic toxicity, gastric probe; assay type: in vivo; conditions: subacute 12 weeks in rats; chronic 6 months in rats and dogs, 0.1 - 0.5 g/kg/die; statement also covers fetal toxicity tests
Procedure: The subacute toxicity of the new product being practically the same for either case of oral or endovenous administration, the administration was only done by.means of a gastric probe.
(§3) The subacute toxicity tests were carried out for 12 weeks on the rats, the chronic toxicity on rats and dogs for 6 months (0.1 - 0.5 g/kg/die) and the fetal toxicity tests were carried out on rats (0.1 - 0.5 g/kg/die between the 6th and 16th days gravidity) and on rabbits (0.1 - 0.3 g/kg/die between the 6th and 18th days of gravidity).

[4] = Pharmacokinetics: urinary elimination, titrimetric method; assay type: in vivo, rats; conditions: for dose excreted at 5 h: rat, urine, 800 mg/kg
Procedure: The pharmcokinetic tests were carried out on rats after having administered 0.8 g/kg of the new product, orally, and using an esophagus probe.
The urinary elimination tests were carried out using the ti- trimetric method. Each sample was treated with an equal volume of 20% HCL, titrating the sulfhydrylic groups with M/100 potassium bromate until the disappearance of the yellow color and calculating the amount of contained new compound (I) by means of a calibrated curve obtained by the same method. The velocity of urinary excretion is maximum within the first two hours after administration. Maximum values obtained after 5 hours amount to about 20% of the amount administered. Administering the same dose (0.8 g/kg) to a rat by means of a rectal suppository of very small dimensions, the cumulative amount in per cent eliminated in the urine within the first five hours is about 12 %.

rats, rabbits = experiment: Fetal toxicity; assay type: in vivo; conditions: rats 0.1 - 0.5 g/kg/die, 6th to 16th day of gravidity; rabbits 0.1 - 0.3 g/kg/die, 6th to 18th day
Procedure: as §3

rats = experiment: Tolerability at the lung level (surfactant, type II pneumocytes) in rats of the chronic toxicity test; assay type: in vivo; conditions: at termination of chronic treatment
Excerpt: In order to evaluate the tolerability at the lung level, for the same rats undergoing the chronic toxicity test, a determination of the influence made at the surfactant level was done at the termination of the treatment. A phospholipids analysis was made, obtaining qualitative data by means of TLC chromographic analysis and quantitative data by phosphorous determination. Gas chromographic analysis was made of the fatty acid content in liposomes separated.by centrifuging from the liquid in which the excised lungs had been washed.

[5] = Molar Conc. 0.015, (a) after 5 minutes at 25°C
[6] = Molar Conc. 0.015, (b) after 40 minutes at 37°C
[7] = Molar Conc. 0.03, (a) after 5 minutes at 25°C
[8] = Molar Conc. 0.03, (b) after 40 minutes at 37°C
[9] = Molar Conc. 0.06, (a) after 5 minutes at 25°C
[10] = Molar Conc. 0.06, (b) after 40 minutes at 37°C
[11] = esophagus probe one hour before 0.05 ml 1% carragenin s.c. in right hind paw, paw volume after three hours, read-out: DE50 (the source's name)
[12] = daily 0.5 g parenterally, 0.8 g aerosol or 1 g orally or rectally

CC(=O)N[C@@H](CS)C(=O)O [AC, N-acetylcysteine]
Residual Viscosity in % [1, 5]: 87%
Residual Viscosity in % [1, 6]: 82%
Residual Viscosity in % [1, 7]: 68%
Residual Viscosity in % [1, 8]: 62%
Residual Viscosity in % [1, 9]: 40%
Residual Viscosity in % [1, 10]: 33%
prevention of intrabronchial desquamation and reactive hyperplasia of the mucosa [2]: ≤ 50%
ED50 (carragenin; [11]): 830 mg/kg
Residual Viscosity in % (DIFCO gastric mucin; Molar Conc. 0.015, 15000 µM): 91%
Residual Viscosity in % (DIFCO gastric mucin; Molar Conc. 0.03, 30000 µM): 86%
Residual Viscosity in % (DIFCO gastric mucin; Molar Conc. 0.06, 60000 µM): 66%
number of rats which developed bronchial obstruction, expressed as a percentage of the animals not protected [3]: 16%
time for the onset of the convulsions (aerosol histaminic shock): 210 s
LD50 (Acute toxicity; ip, i.p): 400 mg/kg

CC(=O)Oc1ccccc1C(=O)O [ASA, acetylsalicylic acid]
ED50 (carragenin; read-out: DE50): 100 mg/kg

NC(CSCC(=O)O)C(=O)O (stereo not drawn) [CM, S-carboxymetylcystine]
prevention of intrabronchial desquamation and reactive hyperplasia of the mucosa [2]: ≤ 50%
DE50 (carragenin; esophagus probe one hour before 0.05 ml 1% carragenin s.c. in right hind paw, paw volume after three hours): not measurable
values lower than those obtained with the MP compound (DIFCO gastric mucin; tests of Tables 1 and 2 (mucin and excreta) repeated, relative to MP): 30%
number of rats which developed bronchial obstruction, expressed as a percentage of the animals not protected [3]: 29%

O=C(O)CNC(=O)CCS [MP, beta-mercaptopropionylamidoacetic acid]
Residual Viscosity in % [1, 5]: 82%
Residual Viscosity in % [1, 6]: 78%
Residual Viscosity in % [1, 7]: 63%
Residual Viscosity in % [1, 8]: 56%
Residual Viscosity in % [1, 9]: 40%
Residual Viscosity in % [1, 10]: 31%
prevention of intrabronchial desquamation and reactive hyperplasia of the mucosa [2]: ≤ 50%
DE50 (carragenin; esophagus probe one hour before 0.05 ml 1% carragenin s.c. in right hind paw, paw volume after three hours, 180 min): 785 mg/kg
Residual Viscosity in % (DIFCO gastric mucin; Molar Conc. 0.015, 15000 µM): 88%
Residual Viscosity in % (DIFCO gastric mucin; Molar Conc. 0.03, 30000 µM): 84%
Residual Viscosity in % (DIFCO gastric mucin; Molar Conc. 0.06, 60000 µM): 65%
number of rats which developed bronchial obstruction, expressed as a percentage of the animals not protected [3]: 16%
time for the onset of the convulsions (aerosol histaminic shock): 210 s
DL50 (mice; e.v.): 3.10 g/kg
DL50 (mice; i.p): 1.54 g/kg
DL50 (mice; os): 3.20 g/kg

CC(S)C(=O)NCC(=O)O (stereo not drawn) [MP/A, alpha-mercaptopropionylamidoacetic acid]
prevention of intrabronchial desquamation and reactive hyperplasia of the mucosa [2]: ≤ 50%
ED50 (carragenin; [11]): 780 mg/kg
values obtained compared with the beta isomer (MP) (DIFCO gastric mucin; tests of Tables 1 and 2 (mucin and excreta) repeated): substantially the same as those obtained with the beta isomer (MP)
number of rats which developed bronchial obstruction, expressed as a percentage of the animals not protected [3]: 14.5%
time for the onset of the convulsions (aerosol histaminic shock): 200 s
LD50 (Acute toxicity; ip, i.p): 1280 mg/kg
LD50 (Acute toxicity; iv, e.v.): 2240 mg/kg
LD50 (Acute toxicity; po, os): 2190 mg/kg

O=C(O)CNC(=O)CCS [MPCa, calcium salt of beta-mercapto propionylamidoacetic acid]
Residual Viscosity in % [1, 5]: 76%
Residual Viscosity in % [1, 6]: 71%
Residual Viscosity in % [1, 7]: 44%
Residual Viscosity in % [1, 8]: 36%
Residual Viscosity in % [1, 9]: 32%
Residual Viscosity in % [1, 10]: 24%
prevention of intrabronchial desquamation and reactive hyperplasia of the mucosa ([2]; listed as The new compound): 65%
ED50 (carragenin; [11]): 650 mg/kg
Residual Viscosity in % (DIFCO gastric mucin; Molar Conc. 0.015, 15000 µM): 83%
Residual Viscosity in % (DIFCO gastric mucin; Molar Conc. 0.03, 30000 µM): 75%
Residual Viscosity in % (DIFCO gastric mucin; Molar Conc. 0.06, 60000 µM): 59%
bronchospasmic manifestations (chronic bronchitis cases; aerosol treatment, plethysmograph in broncholabile patients): no bronchospasmic manifestations were observed
average increase in VEMS (chronic bronchitis cases; [12]): 15%
average increase in vital capacity (chronic bronchitis cases; [12]): 20%
reduction of residual volume (chronic bronchitis cases; [12]): about 20%
diminuition of excreta viscosity (chronic bronchitis cases; muco-purulent expectoration): 50%
diminuition of excreta viscosity (chronic bronchitis cases; purulent expectoration): 70%
tolerability (rats and dogs): Very good tolerability
persistence of the -SE groups in the cells of the bronchial mucosa ([3]; D.D.D. coloration): almost complete persistence
reduction of calyciform hyperplasia ([3]; bronchial mucosa, P.A.S. coloration, less than control group): 40%
number of muciparous cells ([3]; bronchial mucosa, histological and histochemical tests): significant reduction
number of rats which developed bronchial obstruction, expressed as a percentage of the animals not protected [3]: 12.5%
time for the onset of the convulsions (aerosol histaminic shock): 250 s
increase of time for the onset of the convulsions (aerosol histaminic shock; 48 hours after administration): 30%
dose excreted at 5 h ([4]; po, rats, 0.8 g/kg orally, after 5 hours, read-out: urinary elimination, % of the amount administered): ~20%
time of maximum velocity of urinary excretion ([4]; rats, 0.8 g/kg orally): two
dose excreted at 5 h ([4]; 0.8 g/kg rectal suppository, within the first five hours, read-out: cumulative amount in per cent eliminated in the urine): ~12%
LD50 (Acute toxicity; ip, i.p): 1710 mg/kg
LD50 (Acute toxicity; iv, e.v.): 3470 mg/kg
LD50 (Acute toxicity; po, os): 3510 mg/kg
effects on the mothers and on the characteristics of the offspring (rats, rabbits): no negative effects
surfactant level (phospholipids, fatty acid content) compared with the control group (rats): No significant differences
